From ChEMBL document CHEMBL1201862, “PubChem BioAssay data set” (2004)
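Following 48 hours of exposure in 96-well plates, responses at five concentrations were used to interpolate endpoints linearly. GI50: concentration for 50% inhibition of growth.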 Calls of active or inactive are those of the source. No stated cut-off is given here; in the data, active = GI50 up to about 1.1 µM and inactive = higher.

Columns and labels:
Test in all cases: inhibition of tumour cell growth, NCI panel, 48 h
A549 = tested on: A549
ACHN = tested on: ACHN
CAKI-1 = tested on: CAKI-1
CCRF-CEM = tested on: CCRF-CEM
EKVX = tested on: EKVX
HL-60 = tested on: HL-60
LOX IMVI = tested on: LOX IMVI
M14 = tested on: M14
Malme-3M = tested on: Malme-3M
NCI-H23 = tested on: NCI-H23
OVCAR-8 = tested on: OVCAR-8
RPMI-8226 = tested on: RPMI-8226
SF-268 = tested on: SF-268
SK-MEL-2 = tested on: SK-MEL-2
SK-MEL-5 = tested on: SK-MEL-5
UACC-62 = tested on: UACC-62
HT-29 = tested on: HT-29
SN12C = tested on: SN12C

Measured: GI50

O=C(Nc1cccc(NC(=O)c2cc(=O)c3ccccc3o2)n1)c1cc(=O)c2ccccc2o1
inactive: A549 53.6 µM | ACHN 8.32 µM | CAKI-1 > 100 µM | CCRF-CEM 42.2 µM | EKVX 57.4 µM | HL-60 32.3 µM | LOX IMVI 6.1 µM | M14 12.3 µM | Malme-3M > 100 µM | NCI-H23 20.1 µM | OVCAR-8 > 100 µM | RPMI-8226 23.3 µM | SF-268 13.5 µM | SK-MEL-2 > 100 µM | SK-MEL-5 64.9 µM | UACC-62 6.75 µM

O=C(CCc1nnc2s/c(=C\c3ccc([N+](=O)[O-])cc3)c(=O)n12)Nc1ccc(Cl)c(Cl)c1
inactive: A549 40.7 µM | ACHN 36.4 µM | CAKI-1 41.9 µM | CCRF-CEM 20.2 µM | HL-60 17.3 µM | HT-29 30.3 µM | LOX IMVI 15.3 µM | M14 21.6 µM | Malme-3M 29.4 µM | NCI-H23 25.8 µM | OVCAR-8 20.1 µM | RPMI-8226 20.6 µM | SF-268 18.5 µM | SK-MEL-2 27.7 µM | SK-MEL-5 58.1 µM | SN12C 25.2 µM | UACC-62 26.5 µM

N#C/C1=C(\N)CCSSSC1
inactive: A549 45.2 µM | ACHN 41.7 µM | CAKI-1 58.7 µM | CCRF-CEM 48.9 µM | EKVX 45.9 µM | HL-60 > 10 µM | HT-29 31 µM | LOX IMVI 42.4 µM | M14 28.8 µM | Malme-3M 34.5 µM | NCI-H23 32.1 µM | OVCAR-8 21 µM | RPMI-8226 44.8 µM | SF-268 42.9 µM | SK-MEL-2 25.8 µM | SK-MEL-5 26.1 µM | SN12C 36.3 µM

CC(=O)Nc1ccccc1[S+]([O-])c1ccccc1 (stereo not drawn)
inactive: A549 > 100 µM | ACHN > 100 µM | CAKI-1 > 100 µM | CCRF-CEM > 100 µM | EKVX > 100 µM | HL-60 > 100 µM | HT-29 > 100 µM | LOX IMVI > 100 µM | M14 > 100 µM | Malme-3M > 100 µM | NCI-H23 > 100 µM | OVCAR-8 > 100 µM | RPMI-8226 > 100 µM | SF-268 > 100 µM | SK-MEL-2 > 100 µM | SK-MEL-5 > 100 µM | SN12C > 100 µM | UACC-62 > 100 µM
